Values of other authors in patent US20060034872A1, “Compositions and methods for preventing abuse of orally administered medications” (priority 2002, published 2006).

Legend:
[1] = target: T1, VR1 receptors of nociceptive afferent neurons (Homo sapiens, UniProt Q8NER1); details: for sensation elicited by application: applied to skin, oral or nasal mucosa, or subdermal tissue
T1 construct: selective stimulation of the VR1 receptors of nociceptive afferent neurons; from tissue; host or cells: nociceptive afferent neurons in vivo (skin, oral/nasal mucosa, airways, paravenous tissue)
T1 sequence (Q8NER1 whole entry): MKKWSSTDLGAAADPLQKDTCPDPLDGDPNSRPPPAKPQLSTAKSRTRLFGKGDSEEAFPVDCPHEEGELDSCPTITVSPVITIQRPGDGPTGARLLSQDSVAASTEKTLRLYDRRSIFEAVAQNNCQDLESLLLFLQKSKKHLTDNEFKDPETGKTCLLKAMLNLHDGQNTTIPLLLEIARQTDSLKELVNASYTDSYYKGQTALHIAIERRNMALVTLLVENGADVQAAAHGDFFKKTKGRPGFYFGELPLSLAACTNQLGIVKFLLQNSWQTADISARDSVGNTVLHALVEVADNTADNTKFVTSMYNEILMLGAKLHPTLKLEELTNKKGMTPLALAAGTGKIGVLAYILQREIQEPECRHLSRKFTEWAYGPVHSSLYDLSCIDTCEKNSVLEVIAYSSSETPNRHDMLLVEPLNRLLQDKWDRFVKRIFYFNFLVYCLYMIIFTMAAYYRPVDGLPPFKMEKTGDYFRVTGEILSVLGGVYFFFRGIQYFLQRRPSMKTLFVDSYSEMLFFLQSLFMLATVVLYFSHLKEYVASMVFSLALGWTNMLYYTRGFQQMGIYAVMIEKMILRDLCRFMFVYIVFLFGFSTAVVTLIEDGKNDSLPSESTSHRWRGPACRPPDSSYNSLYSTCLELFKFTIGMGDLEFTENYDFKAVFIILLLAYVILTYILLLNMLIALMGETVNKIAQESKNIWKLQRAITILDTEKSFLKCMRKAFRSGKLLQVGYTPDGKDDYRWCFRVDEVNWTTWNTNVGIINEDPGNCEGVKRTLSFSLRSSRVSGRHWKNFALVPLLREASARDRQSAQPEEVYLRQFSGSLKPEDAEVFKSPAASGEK

[2] = target: T1, VR1 receptors of nociceptive afferent neurons; details: ingestion; as little as
[3] = target: T1, VR1 receptors of nociceptive afferent neurons; details: nasal instillation
bronchial VR1 = target: T2, bronchial VR1 (Homo sapiens, UniProt Q8NER1); details: inhaled, 10^−3-10^−8M solutions
T2 construct: selective stimulation of the VR1 receptors of nociceptive afferent neurons; from tissue; host or cells: nociceptive afferent neurons in vivo (skin, oral/nasal mucosa, airways, paravenous tissue)
T2 sequence (Q8NER1 whole entry): as above

VR1 receptors = target: T3, VR1 receptors (Homo sapiens, UniProt Q8NER1)
T3 construct: selective stimulation of the VR1 receptors of nociceptive afferent neurons; from tissue; host or cells: nociceptive afferent neurons in vivo (skin, oral/nasal mucosa, airways, paravenous tissue)
T3 sequence (Q8NER1 whole entry): as above

peripheral VR1 receptors = target: T4, peripheral VR1 receptors (Homo sapiens, UniProt Q8NER1)
T4 construct: from tissue
T4 sequence (Q8NER1 whole entry): as above

[4] = repeated intravesical instillation, 1-2 mM, over five years
[5] = long term intranasal, 0.15 mg per nostril every 2-3 days, total dose 1.05 mg
[6] = not given; remark: listed apart in the source

COc1cc(CNC(=O)CCCC/C=C/C(C)C)ccc1O [capsaicin]
sensation elicited by application [1]: burning pain
sensation following application of dermal cream ([1]; dermal cream containing 0.075% capsaicin): burning pain sensation
amount ingested after which tongue and throat irritation occurs [2]: 3 ppm
amount instilled giving nasal irritation and rhinorrhea [3]: 75 to 150 µg
immediate effect of inhalation (bronchial VR1): sneezing, coughing, and airway constriction
pain when injected directly into a vein (VR1 receptors; injected directly into a vein, up to 650 μM): does not cause pain
pain when injected intradermally (VR1 receptors; intradermal injection): very severe pain
low capsaicin doses to which paravenous tissue is highly sensitive (VR1 receptors; paravenous tissue): 0.3 to 6.5 µM
maximum tolerated dose (MTD) (peripheral VR1 receptors; humans): approximately 4 μg/kg
dose producing raw, burning sensation in chest, face, rectum and extremities (peripheral VR1 receptors; injection directly into the superior vena cava): > 0.5 µg/kg
pathological tissue changes [4]: did not result in pathological tissue changes
histological abnormalities [5]: no histological abnormalities
absorption from the gastrointestinal tract (oral administration): readily absorbed
metabolism in the liver (oral administration): almost completely metabolized

CCCCCCCC/C=C\CCCCCCCC(=O)NCc1ccc(O)c(OC)c1 [olvanil]
first pass metabolism (in vivo): subject to first pass metabolism

COc1ccc2c3c1O[C@H]1C(=O)CC[C@@]4(O)[C@@H](C2)N(C)CC[C@]314 [oxycodone]
biological and therapeutic half-lives ([6]; in vivo): very short
bioavailability ([6]; oral and intranasal administration): high

C=C(C)[C@]12C[C@@H](C)[C@@]34O[C@](Cc5ccccc5)(O[C@@H]1[C@@H]3C=C(COC(=O)Cc1ccc(O)c(OC)c1)C[C@]1(O)C(=O)C(C)=C[C@@H]41)O2 [resiniferatoxin]
sensation elicited by application [1]: burning pain
